How the values were obtained:
Test in all cases: Kinetic measurement with micellar L-dioctanoyl-lecithin (Vmax)
Format in all cases: biochemical
Details in all cases: micellar substrate, titration of fatty acid with 10.3 mM NaOH at pH 6.0
[1] = molecular target: T1, Porcine pancreatic phospholipase A₂ (PLA), native (Sus scrofa, UniProt P00592)
T1 construct: pancreatic pro-PLA's can be purified and converted into the corresponding PLA's; from tissue; host or cells: pig pancreas
Description: (§1) […]. A value of 8.8 is used for the N-terminal shortened bovine pancreas enzyme fragments missing Trp³. • b. The binding of the PLA's to micellar cis-9-octadecenyl phosphocholine is determined by means of UV absorption difference spectroscopy (De Aranjo et al., Biochem. 18, (1979), 580-586;; and Hille et al., Biochem. 20, (1981), 4068-4073). • c. Monolayer experiments are carried out using the zero order through with two compartments and the surface barostat technique for measuring phospholipid hydrolysis (Verger and De Haas, Chem. Phys. Lipids, 10, (1973), 127-136). Calculation of the induction time (τ) is carried out as described by Verger et al. J. Biol. Chem. 248 (1973), 4023-4034). Surface tension (π) is measured by means of the plate method by Wilhelmy using a thin platinum plate attached to a Beckman R II C Model LM 600 microbalance. • d. Kinetic measurements with micellar diC₈PC are carried out according to De Haas et al, Biochem. Biophys. Acta, 239, (1971) 252-266.
(§2) This means that the inherent catalytic activity of these pPLA's is not affected by the site-specific acylation. Although acylation of Lys¹¹⁶ with acetyl or maleyl results in a lower Vmax, the remaining activity is sufficient to hydrolyse micellar short chain lecithins effectively. TABLE A

[2] = test system: Porcine pancreatic phospholipase A₂, [ε-Mal-Lys¹¹⁶]AMPA
Description: as §1, §2

[3] = molecular target: T2, Bovine pancreatic phospholipase A₂, [Arg⁶,ε-Pal-Lys¹⁰]-AMPA (Bos taurus, UniProt P00593, N28R)
T2 construct: Conversion of fully ε-amidinated bovine pancreatic AMPrec in [Arg⁶, ε-Pal-Lys¹⁰]-AMPA; from tissue; host or cells: bovine pancreas; semisynthetic: amidinated fragment 11-123 re-elongated with Pal-Lys, Ile, Met and Ala.Leu.Trp.Gln.Phe.Arg.Gly
T2 sequence (P00593 23-145 N28R): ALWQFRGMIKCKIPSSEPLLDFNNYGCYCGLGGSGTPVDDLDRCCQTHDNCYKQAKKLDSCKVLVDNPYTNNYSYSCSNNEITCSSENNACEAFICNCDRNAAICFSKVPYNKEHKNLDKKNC
Description: as §1, §2

[4] = test system: Porcine pancreatic phospholipase A₂, [ε-Lau-Lys¹¹⁶]AMPA
Description: as §1, §2

[5] = test system: Porcine pancreatic phospholipase A₂, [ε-Pal-Lys¹¹⁶]AMPA
Description: as §1, §2

[6] = test system: Porcine pancreatic phospholipase A₂, [ε-NH₂-Lys¹¹⁶]AMPA
Description: as §1, §2

[7] = molecular target: T3, Bovine pancreatic phospholipase A₂, [Arg⁶]-AMPA (Bos taurus, UniProt P00593, N28R)
T3 construct: fully ε-amidinated according to the method by Wallace and Harris, Biochem. J., 217, (1984), 589-594, and converted into AMPA; from tissue; host or cells: bovine pancreas
T3 sequence (P00593 23-145 N28R): as above
Description: as §1, §2

[8] = molecular target: T4, Porcine pancreatic phospholipase A₂, AMPA (fully ε-amidinated PLA) (Sus scrofa, UniProt P00592)
T4 construct: fully ε-amidinated according to the method by Wallace and Harris, Biochem. J., 217, (1984), 589-594, and converted into AMPA; from tissue; host or cells: pig pancreas; chemically amidinated as the pro-enzyme, then converted to the active enzyme
T4 sequence (P00592 23-146): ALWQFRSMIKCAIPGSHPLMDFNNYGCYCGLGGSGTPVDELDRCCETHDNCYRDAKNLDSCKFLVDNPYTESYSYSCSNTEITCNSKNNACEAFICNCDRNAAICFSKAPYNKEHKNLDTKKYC
Description: as §1, §2

[9] = test system: Porcine pancreatic phospholipase A₂, [ε-Ac-Lys¹¹⁶]AMPA
Description: as §1, §2

[10] = test system: Porcine pancreatic phospholipase A₂, [ε-Cap-Lys¹¹⁶]AMPA
Description: as §1, §2

[11] = test system: Porcine pancreatic phospholipase A₂, [ε-Ol-Lys¹¹⁶]AMPA
Description: as §1, §2

[12] = molecular target: T5, Bovine pancreatic phospholipase A₂, AMPA (fully ε-amidinated PLA) (Bos taurus, UniProt P00593)
T5 construct: fully ε-amidinated according to the method by Wallace and Harris, Biochem. J., 217, (1984), 589-594, and converted into AMPA; from tissue; host or cells: bovine pancreas; chemically amidinated as the pro-enzyme, then converted to the active enzyme
T5 sequence (P00593 23-145): as the sequence (P00593 23-145 N28R) above, with R6N counted along it
Description: as §1, §2

[13] = molecular target: T6, Bovine pancreatic phospholipase A₂ (PLA), native (Bos taurus, UniProt P00593)
T6 construct: pancreatic pro-PLA's can be purified and converted into the corresponding PLA's; from tissue; host or cells: bovine pancreas
T6 sequence (P00593 23-145): as the sequence (P00593 23-145 N28R) above, with R6N counted along it
Description: as §1, §2

T1 sequence (P00592 23-146): as the sequence (P00592 23-146) above

CCCCCCCC(=O)OC[C@H](COP(=O)([O-])OCC[N+](C)(C)C)OC(=O)CCCCCCC [L-dioctanoyl-lecithin, 1,2-dioctanoyl-sn-glycero-3-phosphocholine]
Vmax micellar L-dioctanoyl-lecithin [1]: 2200 µequiv. min⁻¹ mg⁻¹ | Vmax micellar L-dioctanoyl-lecithin [2]: 405 µequiv. min⁻¹ mg⁻¹ | Vmax micellar L-dioctanoyl-lecithin [3]: 5600 µequiv. min⁻¹ mg⁻¹ | Vmax micellar L-dioctanoyl-lecithin [4]: 2500 µequiv. min⁻¹ mg⁻¹ | Vmax micellar L-dioctanoyl-lecithin [5]: 2200 µequiv. min⁻¹ mg⁻¹ | Vmax micellar L-dioctanoyl-lecithin [6]: 2000 µequiv. min⁻¹ mg⁻¹ | Vmax micellar L-dioctanoyl-lecithin [7]: 5900 µequiv. min⁻¹ mg⁻¹ | Vmax micellar L-dioctanoyl-lecithin [8]: 1650 µequiv. min⁻¹ mg⁻¹ | Vmax micellar L-dioctanoyl-lecithin [9]: 755 µequiv. min⁻¹ mg⁻¹ | Vmax micellar L-dioctanoyl-lecithin [10]: 2100 µequiv. min⁻¹ mg⁻¹ | Vmax micellar L-dioctanoyl-lecithin [11]: 2600 µequiv. min⁻¹ mg⁻¹ | Vmax micellar L-dioctanoyl-lecithin [12]: 2300 µequiv. min⁻¹ mg⁻¹ | Vmax micellar L-dioctanoyl-lecithin [13]: 3000 µequiv. min⁻¹ mg⁻¹

Source: EP0311163A2, “Use of site-specific modified lipolytic enzymes for the selective hydrolysis of organized lipid structures” (DUPHAR INTERNATIONAL RESEARCH B.V, priority 1987, dated 1989)
